Reference: ChEMBL document CHEMBL1201862, “PubChem BioAssay data set” (2004)
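All cell lines were grown in 96-well plates and treated with compound for 48 hours. GI50 marks 50% less growth.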 Active and inactive are the calls of the source. Rule as the data show it: active = GI50 up to about 1.1 µM and inactive = higher.

Key:
Test in all cases: NCI tumour cell line growth inhibition, 48 h
Malme-3M = test system: Malme-3M
HOP-92 = test system: HOP-92
HT-29 = test system: HT-29
TK-10 = test system: TK-10
OVCAR-3 = test system: OVCAR-3
NCI-H460 = test system: NCI-H460
SK-OV-3 = test system: SK-OV-3
MDA-MB-231 = test system: MDA-MB-231
UACC-62 = test system: UACC-62
SF-539 = test system: SF-539
CCRF-CEM = test system: CCRF-CEM
SN12C = test system: SN12C
SK-MEL-5 = test system: SK-MEL-5
DU-145 = test system: DU-145
KM12 = test system: KM12
HCT-15 = test system: HCT-15
IGROV-1 = test system: IGROV-1
SW-620 = test system: SW-620
OVCAR-5 = test system: OVCAR-5
CAKI-1 = test system: CAKI-1

Structure (SMILES) | GI50 (Malme-3M) | GI50 (HOP-92) | GI50 (HT-29) | GI50 (TK-10) | GI50 (OVCAR-3) | GI50 (NCI-H460) | GI50 (SK-OV-3) | GI50 (MDA-MB-231) | GI50 (UACC-62) | GI50 (SF-539) | GI50 (CCRF-CEM) | GI50 (SN12C) | GI50 (SK-MEL-5) | GI50 (DU-145) | GI50 (KM12) | GI50 (HCT-15) [µM] | GI50 (IGROV-1) | GI50 (SW-620) | GI50 (OVCAR-5) | GI50 (CAKI-1)
Fc1ccc(Nc2nc(Cl)c3nc[nH]c3n2)cc1Cl | > 100 µM (inactive) | > 100 µM (inactive) | > 100 µM (inactive) | > 100 µM (inactive) | > 100 µM (inactive) | 58.9 µM (inactive) | 87.1 µM (inactive) | > 100 µM (inactive) | > 100 µM (inactive) | 45.5 µM (inactive) | > 100 µM (inactive) | > 100 µM (inactive) | > 100 µM (inactive) | 87.3 µM (inactive) | > 100 µM (inactive) | > 100 | 84.9 µM (inactive) | > 100 µM (inactive) | > 100 µM (inactive) | 6.97 µM (inactive)
COc1c(C2(c3ccc(F)cc3)SCCCS2)c(=O)c1=O | > 100 µM (inactive) | > 100 µM (inactive) | > 100 µM (inactive) | > 100 µM (inactive) | > 100 µM (inactive) | > 100 µM (inactive) | > 100 µM (inactive) | > 100 µM (inactive) | > 100 µM (inactive) | > 100 µM (inactive) | > 100 µM (inactive) | > 100 µM (inactive) | > 100 µM (inactive) | > 100 µM (inactive) | > 100 µM (inactive) | > 100 | – | > 100 µM (inactive) | > 100 µM (inactive) | > 100 µM (inactive)
CC1=C(CCC(C)CO)O[C@H]2C[C@H]3[C@@H]4CC[C@H]5C[C@@H](O)CC[C@]5(C)[C@H]4CC(=O)[C@]3(C)[C@@H]12 (stereo not given in full) | 19.1 µM (inactive) | 23.9 µM (inactive) | 13.7 µM (inactive) | 19.8 µM (inactive) | 4.94 µM (inactive) | 6.87 µM (inactive) | 0.442 µM (active) | 18.1 µM (inactive) | 6.17 µM (inactive) | 19.2 µM (inactive) | 4.89 µM (inactive) | 18.9 µM (inactive) | 8.18 µM (inactive) | 20.6 µM (inactive) | 11.3 µM (inactive) | 17.1 | 12.6 µM (inactive) | 35.6 µM (inactive) | 27.4 µM (inactive) | 27.7 µM (inactive)
CC1OC(OC2C(O[C@H]3CC[C@@]4(C)C(=CC[C@H]5[C@@H]6C[C@@H]7O[C@]8(CC[C@@H](CO)CO8)[C@@H](C)[C@@H]7[C@@]6(C)CC[C@@H]54)C3)OC(CO)C(O)C2OC2OC(CO)C(O)C(O)C2O)C(O)C(O)C1O (stereo not given in full) | 1.81 µM (inactive) | 1.76 µM (inactive) | 2.1 µM (inactive) | 1.71 µM (inactive) | – | 1.78 µM (inactive) | 2.62 µM (inactive) | 1.79 µM (inactive) | 1.83 µM (inactive) | 1.6 µM (inactive) | – | 1.8 µM (inactive) | 1.64 µM (inactive) | 1.84 µM (inactive) | 1.91 µM (inactive) | 1.91 | 1.95 µM (inactive) | 1.86 µM (inactive) | 2.22 µM (inactive) | 1.95 µM (inactive)
N/C(=N\Nc1cccc(Cl)c1)c1cccnc1 | 97.9 µM (inactive) | > 68.7 µM (inactive) | 27.2 µM (inactive) | 28.6 µM (inactive) | 13.5 µM (inactive) | 35.2 µM (inactive) | > 100 µM (inactive) | 81.1 µM (inactive) | 22.8 µM (inactive) | 30.2 µM (inactive) | 18.6 µM (inactive) | 60 µM (inactive) | 32.9 µM (inactive) | 82.2 µM (inactive) | 30 µM (inactive) | 39.6 | 70.6 µM (inactive) | 54.2 µM (inactive) | 41.3 µM (inactive) | 3.49 µM (inactive)
O=C1C(C(O)(C(F)(F)Cl)C(F)(F)Cl)CCCC1C(O)(C(F)(F)Cl)C(F)(F)Cl (stereo not given) | > 10 µM (inactive) | 5.11 µM (inactive) | > 10 µM (inactive) | > 10 µM (inactive) | > 10 µM (inactive) | > 10 µM (inactive) | > 10 µM (inactive) | > 10 µM (inactive) | > 10 µM (inactive) | > 10 µM (inactive) | – | – | > 10 µM (inactive) | > 10 µM (inactive) | > 10 µM (inactive) | > 10 | > 10 µM (inactive) | > 10 µM (inactive) | > 10 µM (inactive) | > 10 µM (inactive)
Cc1ccc(/N=N/c2ccc(O)c(CN(C)C)c2)cc1C | 19.1 µM (inactive) | 26.8 µM (inactive) | 18.4 µM (inactive) | 16.1 µM (inactive) | 15.6 µM (inactive) | 19.1 µM (inactive) | 45 µM (inactive) | 16.3 µM (inactive) | 17.1 µM (inactive) | 19.5 µM (inactive) | 24 µM (inactive) | > 100 µM (inactive) | 15.1 µM (inactive) | 29.5 µM (inactive) | 16.9 µM (inactive) | 17.3 | 21.3 µM (inactive) | 33.6 µM (inactive) | 31.8 µM (inactive) | 25.6 µM (inactive)
